How the values were obtained:
Type in all cases: in vivo
[1] = system: postmenopausal or ovarectomized women; experiment: double-blind, randomized crossover clinical study: hot flashes (patient diaries, skin temperature); settings: 0.4 mg buccal tablet
Experimental: (§1) Hot flashes were recorded before the beginning of treatment and on one of the last 3 days of treatment week 4. This was carried out according to subjective criteria (number and severity of the events) using patient diaries and objectively by continuous measurement of the skin temperature.

[2] = system: postmenopausal or ovarectomized women; experiment: endometrial thickness by transvaginal ultrasound in clinical study; settings: 0.4 mg buccal tablet
Experimental: as §1, with “temperature. In addition, the measurement of the endometrial thickness was carried out by transvaginal ultrasound investigations.” for “temperature.”

[3] = system: postmenopausal or ovarectomized women; experiment: tolerability: monitoring of undesired events and laboratory investigations in clinical study; settings: 0.4 mg buccal tablet, versus placebo group
Experimental: as §1, with “temperature. Moreover, the tolerability of the treatment regime was determined by monitoring of undesired events and standardized laboratory investigations.” for “temperature.”

endometrial thickness measured by transvaginal ultrasound [2]: not significantly altered
Structure (SMILES): C[C@]12CC[C@@H]3c4ccc(O)cc4CC[C@H]3[C@@H]1CC[C@H]2O [17α-estradiol]
number of hot flashes per 24 h ([1]; after treatment for 4 weeks, before treatment 11.9±2.1, patient diaries): 3.1±1.8 per 24 h
effect on number and intensity of hot flashes ([1]; drug group versus placebo): rapid reduction of the number and intensity of hot flashes
side-effect profile [3]: comparable

Reference: patent US20120142656A1, “BUCCAL APPLICATION SYSTEM COMPRISING 17A-ESTRADIOL” (BAYER PHARMA AKTIENGESELLSCHAFT, priority 2009, published 2012)
